From ChEMBL document CHEMBL1129920, “Cyclic homopentapeptides 2. Synthetic modifications of viomycin” (1997)
Converted amounts (≈) assume the structure as drawn.

Columns and labels:
Assay type in all cases: functional
Escherichia coli = assay: In vitro inhibition of Escherichia coli growth.
Pasteurella multocida = assay: In vitro inhibition of Pasteurella multocida growth.
Staphylococcus aureus = assay: In vitro inhibition of MRSA growth.

Row | Structure (SMILES) | MIC (Escherichia coli) | MIC (Pasteurella multocida) | MIC (Staphylococcus aureus)
1 | CC(C)(C)c1ccc(COC(=O)NC2CC([C@H]3NC(=O)/C(=C/NC(N)=O)NC(=O)[C@@H](CO)NC(=O)[C@@H](CO)NC(=O)C(NC(=O)C[C@@H](N)CCCN)CNC3=O)N=C(N)N2)cc1 (some centres undefined) | 25 µg/mL (≈ 28.6 µM) | 12.5 µg/mL (≈ 14.3 µM) | –
2 | NCCC[C@H](N)CC(=O)NC1CNC(=O)[C@@H](C2CC(NC(=O)OCc3ccc(I)cc3)N=C(N)N2)NC(=O)/C(=C/NC(N)=O)NC(=O)[C@@H](CO)NC(=O)[C@@H](CO)NC1=O (some centres undefined) | 12.5 µg/mL (≈ 13.2 µM) | 3.13 µg/mL (≈ 3.31 µM) | 12.5 µg/mL (≈ 13.2 µM)
3 | NCCC[C@H](N)CC(=O)NC1CNC(=O)[C@@H](C2CC(NC(=O)OCc3ccccc3)N=C(N)N2)NC(=O)/C(=C/NC(N)=O)NC(=O)[C@@H](CO)NC(=O)[C@@H](CO)NC1=O (some centres undefined) | 50 µg/mL (≈ 61.1 µM) | 25 µg/mL (≈ 30.5 µM) | –
4 | COc1ccc(C2CC([C@H]3NC(=O)/C(=C/NC(N)=O)NC(=O)[C@@H](CO)NC(=O)[C@@H](CO)NC(=O)C(NC(=O)C[C@@H](N)CCCN)CNC3=O)N=C(N)N2)cc1OC (some centres undefined) | > 200 µg/mL | > 200 µg/mL | –
5 | NCCC[C@H](N)CC(=O)NC1CNC(=O)[C@@H](C2CC(NC(=O)Nc3ccc(Cl)c(Cl)c3)N=C(N)N2)NC(=O)/C(=C/NC(=O)Nc2ccc(Cl)c(Cl)c2)NC(=O)[C@@H](CO)NC(=O)[C@@H](CO)NC1=O (some centres undefined) | 6.25 µg/mL (≈ 6.14 µM) | 6.25 µg/mL (≈ 6.14 µM) | 25 µg/mL (≈ 24.6 µM)
6 | NCCC[C@H](N)CC(=O)NC1CNC(=O)[C@@H](C2CC(O)N=C(N)N2)NC(=O)/C(=C/NC(=O)Nc2ccc(Cl)c(Cl)c2)NC(=O)[C@@H](CO)NC(=O)[C@@H](CO)NC1=O (some centres undefined) | 50 µg/mL (≈ 60.2 µM) | 3.12 µg/mL (≈ 3.76 µM) | –
7 | NCCC[C@H](N)CC(=O)NC1CNC(=O)[C@@H](C2CC(c3ccc(O)c(O)c3)N=C(N)N2)NC(=O)/C(=C/NC(N)=O)NC(=O)[C@@H](CO)NC(=O)[C@@H](CO)NC1=O (some centres undefined) | 200 µg/mL (≈ 257 µM) | 200 µg/mL (≈ 257 µM) | –
8 | Cc1ccc(S(=O)(=O)NC2CC([C@H]3NC(=O)/C(=C/NC(N)=O)NC(=O)[C@@H](CO)NC(=O)[C@@H](CO)NC(=O)C(NC(=O)C[C@@H](N)CCCN)CNC3=O)N=C(N)N2)cc1 (some centres undefined) | 200 µg/mL (≈ 238 µM) | 200 µg/mL (≈ 238 µM) | –
9 | NCCC[C@H](N)CC(=O)NC1CNC(=O)[C@@H](C2CC(NC(=O)NCc3cccc(C4CCCCC4)c3)N=C(N)N2)NC(=O)/C(=C/NC(N)=O)NC(=O)[C@@H](CO)NC(=O)[C@@H](CO)NC1=O (some centres undefined) | – | – | 12.5 µg/mL (≈ 13.9 µM)
10 | NCCC[C@H](N)CC(=O)NC1CNC(=O)[C@@H](C2CC(c3ccc(O)c(O)c3)N=C(N)N2)NC(=O)/C(=C/NC(=O)Nc2ccc(Cl)c(Cl)c2)NC(=O)[C@@H](CO)NC(=O)[C@@H](CO)NC1=O (some centres undefined) | 12.5 µg/mL (≈ 13.5 µM) | 12.5 µg/mL (≈ 13.5 µM) | –
11 | NCCC[C@H](N)CC(=O)NC1CNC(=O)[C@@H](C2CC(NC(=O)OCc3cccc(I)c3)N=C(N)N2)NC(=O)/C(=C/NC(N)=O)NC(=O)[C@@H](CO)NC(=O)[C@@H](CO)NC1=O (some centres undefined) | 6.25 µg/mL (≈ 6.62 µM) | 6.25 µg/mL (≈ 6.62 µM) | 12.5 µg/mL (≈ 13.2 µM)
12 | COc1ccc(C2CC([C@H]3NC(=O)/C(=C/NC(=O)Nc4ccc(Cl)c(Cl)c4)NC(=O)[C@@H](CO)NC(=O)[C@@H](CO)NC(=O)C(NC(=O)C[C@@H](N)CCCN)CNC3=O)N=C(N)N2)cc1OC (some centres undefined) | 12.5 µg/mL (≈ 13.1 µM) | 12.5 µg/mL (≈ 13.1 µM) | –
13 | NCCC[C@H](N)CC(=O)NC1CNC(=O)[C@@H](C2CC(N[C@H](CS)C(=O)O)N=C(N)N2)NC(=O)/C(=C/NC(=O)Nc2ccc(Cl)c(Cl)c2)NC(=O)[C@@H](CO)NC(=O)[C@@H](CO)NC1=O (some centres undefined) | 25 µg/mL (≈ 26.8 µM) | 3.12 µg/mL (≈ 3.34 µM) | –
14 | NCCC[C@H](N)CC(=O)NC1CNC(=O)[C@@H](C2CC(NC(=O)Nc3ccc(Cl)c(Cl)c3)N=C(N)N2)NC(=O)/C(=C/NC(N)=O)NC(=O)[C@@H](CO)NC(=O)[C@@H](CO)NC1=O (some centres undefined) | 6.25 µg/mL (≈ 7.16 µM) | 1.56 µg/mL (≈ 1.79 µM) | 25 µg/mL (≈ 28.6 µM)
15 | NCCC[C@H](N)CC(=O)NC1CNC(=O)[C@@H](C2CC(NC(=O)NCc3ccc(Cl)c(Cl)c3)N=C(N)N2)NC(=O)/C(=C/NC(N)=O)NC(=O)[C@@H](CO)NC(=O)[C@@H](CO)NC1=O (some centres undefined) | 12.5 µg/mL (≈ 14.1 µM) | 3.13 µg/mL (≈ 3.53 µM) | –
16 | NCCC[C@H](N)CC(=O)NC1CNC(=O)[C@@H](C2CC(O)N=C(N)N2)NC(=O)/C(=C/NC(N)=O)NC(=O)[C@@H](CO)NC(=O)[C@@H](CO)NC1=O (some centres undefined) | 200 µg/mL (≈ 292 µM) | 200 µg/mL (≈ 292 µM) | –
17 | NCCC[C@H](N)CC(=O)NC1CNC(=O)[C@@H](C2CC(NC(=O)OCc3ccc(Cl)c(Cl)c3)N=C(N)N2)NC(=O)/C(=C/NC(N)=O)NC(=O)[C@@H](CO)NC(=O)[C@@H](CO)NC1=O (some centres undefined) | 25 µg/mL (≈ 28.2 µM) | 6.25 µg/mL (≈ 7.04 µM) | 3.12 µg/mL (≈ 3.51 µM)
18 | NCCC[C@H](N)CC(=O)NC1CNC(=O)[C@@H](C2CC(NC(=O)NCc3ccc(C4CCCCC4)cc3)N=C(N)N2)NC(=O)/C(=C/NC(N)=O)NC(=O)[C@@H](CO)NC(=O)[C@@H](CO)NC1=O (some centres undefined) | – | – | 25 µg/mL (≈ 27.8 µM)
19 | NCCC[C@H](N)CC(=O)NC1CNC(=O)[C@@H](C2CC(SCCN)NC(N)=N2)NC(=O)/C(=C/NC(=O)Nc2ccc(Cl)c(Cl)c2)NC(=O)[C@@H](CO)NC(=O)[C@@H](CO)NC1=O (some centres undefined) | 25 µg/mL (≈ 28.1 µM) | 3.12 µg/mL (≈ 3.51 µM) | –
20 | CSC[C@@H](NC1CC([C@H]2NC(=O)/C(=C/NC(=O)Nc3ccc(Cl)c(Cl)c3)NC(=O)[C@@H](CO)NC(=O)[C@@H](CO)NC(=O)C(NC(=O)C[C@@H](N)CCCN)CNC2=O)N=C(N)N1)C(=O)O (some centres undefined) | 25 µg/mL (≈ 26.4 µM) | 3.12 µg/mL (≈ 3.29 µM) | –
21 | NCCC[C@H](N)CC(=O)NC1CNC(=O)[C@@H](C2CC(NC(=O)OCc3cccc(Cl)c3Cl)N=C(N)N2)NC(=O)/C(=C/NC(N)=O)NC(=O)[C@@H](CO)NC(=O)[C@@H](CO)NC1=O (some centres undefined) | 25 µg/mL (≈ 28.2 µM) | 3.13 µg/mL (≈ 3.53 µM) | 12.5 µg/mL (≈ 14.1 µM)
22 | NCCC[C@H](N)CC(=O)NC1CNC(=O)[C@@H](C2CC(NC(=O)OCc3ccc(Cl)cc3Cl)N=C(N)N2)NC(=O)/C(=C/NC(=O)Nc2ccc(Cl)c(Cl)c2)NC(=O)[C@@H](CO)NC(=O)[C@@H](CO)NC1=O (some centres undefined) | 3.13 µg/mL (≈ 3.03 µM) | 6.25 µg/mL (≈ 6.05 µM) | 12.5 µg/mL (≈ 12.1 µM)
23 | CC(=O)N(C1CC([C@H]2NC(=O)/C(=C/NC(=O)Nc3ccc(Cl)c(Cl)c3)NC(=O)[C@@H](CO)NC(=O)[C@@H](CO)NC(=O)C(NC(=O)C[C@@H](N)CCCN)CNC2=O)N=C(N)N1)[C@H](CS)C(=O)O (some centres undefined) | 50 µg/mL (≈ 51.2 µM) | 6.25 µg/mL (≈ 6.4 µM) | –
24 | NCCC[C@H](N)CC(=O)NC1CNC(=O)[C@@H](C2CC(NC(=O)OCc3ccc(Cl)cc3F)N=C(N)N2)NC(=O)/C(=C/NC(N)=O)NC(=O)[C@@H](CO)NC(=O)[C@@H](CO)NC1=O (some centres undefined) | 12.5 µg/mL (≈ 14.3 µM) | 3.13 µg/mL (≈ 3.59 µM) | –
25 | CN[C@H](CC(C)C)C(=O)N[C@H]1C(=O)N[C@@H](CC(N)=O)C(=O)N[C@H]2C(=O)N[C@H]3C(=O)N[C@H](C(=O)N[C@H](C(=O)O)c4cc(O)cc(O)c4-c4cc3ccc4O)[C@H](O)c3ccc(c(Cl)c3)Oc3cc2cc(c3O[C@@H]2O[C@H](CO)[C@@H](O)[C@H](O)[C@H]2O[C@H]2C[C@](C)(N)[C@H](O)[C@H](C)O2)Oc2ccc(cc2Cl)[C@H]1O [VANCOMYCIN] | – | – | 0.78 µg/mL (≈ 0.538 µM)
